Data from patent US9562053B2, “Benzo-fused heterocyclic derivatives useful as agonists of GPR120” (Janssen Pharmaceutica NV, priority 2013, dated 2017).

Assays:
[1] = target: T1, short form of the GPR120 receptor (Homo sapiens, UniProt Q5NUL3); experiment: Human GPR120 DiscoveRx PathHunter Beta-Arrestin Assay, Procedure β-arrestin B (5000 cells/well); assay type: cell-based
T1 construct: host or cells: PathHunter CHO-K1 GPR120S β-Arrestin Cell Line
T1 sequence (Q5NUL3 1-361): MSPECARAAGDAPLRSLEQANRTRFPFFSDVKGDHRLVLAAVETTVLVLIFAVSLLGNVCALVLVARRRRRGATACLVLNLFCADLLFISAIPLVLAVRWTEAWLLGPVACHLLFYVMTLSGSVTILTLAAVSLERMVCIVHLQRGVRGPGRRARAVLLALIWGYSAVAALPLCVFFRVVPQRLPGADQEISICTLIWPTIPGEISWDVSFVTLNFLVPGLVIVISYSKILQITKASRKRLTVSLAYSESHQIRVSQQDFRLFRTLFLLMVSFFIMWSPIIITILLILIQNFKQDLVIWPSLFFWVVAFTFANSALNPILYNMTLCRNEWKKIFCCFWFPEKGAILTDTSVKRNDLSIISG
Summary of the method: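 PathHunter CHO-K1 cells expressing short-form GPR120 (NM_181745), seeded at 5000 cells/well, were exposed to compound for 90 min at 37 °C in HBSS/20 mM HEPES/0.1% BSA, pH 7.4. Dilutions ran 25–0.012 µM before addition to wells. β-arrestin recruitment was read by EFC β-gal luminescence, and EC50 was fitted to % activity versus positive control with Hill slope fixed at 1.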

[2] = target: T2, long form of human GPR120 (Homo sapiens, UniProt Q5NUL3); experiment: Human GPR120 DiscoveRx PathHunter Beta-Arrestin Assay, Procedure β-arrestin A (3000 cells per well); assay type: cell-based; details: read-out: GPR120 B-arrestin A EC50
T2 construct: host or cells: PathHunter CHO-K1 GPR120 β-Arrestin Cell Line
T2 sequence (Q5NUL3 1-377 isoform Q5NUL3-1): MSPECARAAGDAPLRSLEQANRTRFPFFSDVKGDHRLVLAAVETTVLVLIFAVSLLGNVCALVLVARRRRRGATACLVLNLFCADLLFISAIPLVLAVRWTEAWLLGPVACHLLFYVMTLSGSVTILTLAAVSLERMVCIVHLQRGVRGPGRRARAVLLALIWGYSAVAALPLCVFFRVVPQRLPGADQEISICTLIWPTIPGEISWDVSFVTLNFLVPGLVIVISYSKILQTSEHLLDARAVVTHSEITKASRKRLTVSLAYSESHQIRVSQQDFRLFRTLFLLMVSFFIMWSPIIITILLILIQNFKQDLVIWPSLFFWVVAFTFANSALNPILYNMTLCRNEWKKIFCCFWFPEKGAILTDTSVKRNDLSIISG
Summary of the method: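 PathHunter CHO-K1 cells with long-form receptor, 3000/well, seeded overnight at 37 °C; equilibrated 60 min at 37 °C in HBSS/20 mM HEPES/0.1% BSA, pH 7.4. Compound serial dilutions (25–0.012 μM) added for 90 min at 37 °C, detection 60 min at room temperature, luminescence read; EC50 from % of positive control, Hill slope fixed at 1.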

Row | EC50 [1] [nM] | EC50 [2] [nM] | SMILES
1 | 70 | 151 | CCc1cc2cc(OC(F)(F)F)cc(COc3ccc(CCC(=O)O)c(C)c3C)c2o1 [Compound 12, 3-(4-{[2-Ethyl-5-(trifluoromethoxy)-1-benzofuran-7-yl]methoxy}-2,3-dimethylphenyl)propanoic acid]
2 | 69 | 85 | Cc1cc2cc(OC(F)(F)F)cc(COc3ccc(CCC(=O)O)c(C)c3C)c2o1 [Compound 36, 3-(2,3-Dimethyl-4-{[2-methyl-5-(trifluoromethoxy)-1-benzofuran-7-yl]methoxy}phenyl)propanoic acid]
3 | 94 | 283 | CCc1cc2cc(Cl)cc(COc3ccc(CCC(=O)O)c(C)c3C)c2o1 [Compound 11, 3-{4-[(5-Chloro-2-ethyl-1-benzofuran-7-yl)methoxy]-2,3-dimethylphenyl}propanoic acid]

The next lines start with the molecule.

Row | SMILES | EC50 [1] [nM] | EC50 [2] [nM]
4 | CCc1cc2ccc(OC(F)F)c(COc3ccc(CCC(=O)O)c(C)c3C)c2o1 [Compound 70, 3-(4-{[6-(Difluoromethoxy)-2-ethyl-1-benzofuran-7-yl]methoxy}-2,3-dimethylphenyl)propanoic acid] | 1290 | 2500
5 | CCc1cc2cc(Cl)cc(COc3ccc(CCC(=O)O)c4c3CCC4)c2o1 [Compound 54, 3-{7-[(5-Chloro-2-ethyl-1-benzofuran-7-yl)methoxy]-2,3-dihydro-1H-inden-4-yl}propanoic acid] | 150 | 429
